What was measured:
[1] = test system: KB cells; assay: Western blot of Histone H3 phosphorylation and cyclin B1, KB; format: cell-based, Human; settings: 48 h, BPR1K653 12, 24, 36 nM, VX680 170 and 255 nM
Description: Cells were lysed with ice-cold lysis buffer (10 mM Tris, 1 mM EDTA, 1 mM DTT, 60 mM KCl, 0.5% NP-40 and protease inhibitors). […] The resolved proteins were electrophoretically transferred to PVDF membranes (Amersham Life Science, Amersham, U.K.) for Western blot analysis. The membranes were blocked with 5% non-fat milk at room temperature for two hours, washed twice with TBST (1% Tween) and then incubated with either anti-phosphorylated Aurora-A/-B/-C kinase antibody (#2914S, Cell Signaling Technology, Danvers, MA), anti-Aurora-A and -B kinase antibody (#ab1287 and #ab2254, Abcam, Cambridge, MA), anti-phosphorylated Histone H3 antibody (#9701, Cell Signaling Technology, Danvers, MA), anti-Histone H3 antibody (#9715, Cell Signaling Technology, Danvers, MA), anti-Cyclin B1 antibody or anti-Actin antibody (#sc-245 and #sc-130065, Santa Cruz Biotechnology, Santa Cruz, CA) overnight at 4°C. Membranes were washed twice with TBST then subsequently incubated with a horseradish peroxidase-conjugated secondary antibody (Santa Cruz Biotechnology, Santa Cruz, CA) for 1 hour at room temperature. Immunoreactivity was detected by Enhanced Chemiluminescence (Amersham International, Buckingham, U.K.) and autoradiography. Experiments were repeated independently at least two times.

[2] = test system: KB cells; assay: Clonogenic assay, KB; format: cell-based, Human; settings: Homo sapiens, cervical, p53 wild-type, MDR1 negative (parental), read-out: IC50, anti-proliferative activity
Description: (§1) Human lung adenocarcinoma A549 cells and NTUB1 bladder cancer cells were maintained in RPMI supplied with 10% fetal bovine serum. […] KB-derived MRP1-expressing cell line, KB-7D, was maintained in growth medium supplemented with 7 µM VP-16.
(§2) Two hundred cells in logarithmic growth phase were seeded in a 6-well plate. The cells were exposed to various concentrations of the test drugs for a three-generation period. At the end of the incubation period, cells were fixed and stained with 50% ethanol containing 0.5% methylene blue for 30 min. The plates were washed five times with water and allowed to air-dry. Colonies were countered manually. […] Each value represents the average of at least three independent experiments run in triplicates.

[3] = test system: KB cells; assay: Endo-replication (polyploidy), microscopy and flow cytometry, KB; format: cell-based, Human; settings: 48 h
Description: (§3) Cell cycle progression was monitored using flow cytometry. After drug treatment, cells were trypsinized, washed with PBS and fixed in 80% ethanol at −20°C for 1 h. The fixed cells were stained with propidium iodide (containing RNase) at room temperature in the dark for 20 min. The DNA content was determined by a fluorescence-activated cell sorting IV flow cytometer (BD Biosciences, Franklin Lakes, NJ). For each analysis, 10,000 cells were counted and the percentage of cells in each phase was calculated using the ModFit LT software (Verity Software House, Topsham, ME). Experiments were repeated independently at least three times.

[4] = test system: KB-VIN10 cells; assay: Clonogenic assay, KB-VIN10; format: cell-based, Human; settings: for IC50: Homo sapiens, KB-VIN10, vincristine resistant, MDR1 ↑, read-out: IC50, anti-proliferative activity
Description: as §1, §2

[5] = test system: MDR1-expressing KB-VIN10 xenograft; assay: KB-VIN10 xenograft in nude mice; format: in vivo; settings: 5 days/week for 3 weeks; for decrease in tumor volume: Day 42, BPR1K653 15 mg/kg or VX680 30 mg/kg i.p.
Description: (§4) Male nude mice (5–6-weeks-old) were purchased from the National Laboratory Animal Centre (Taiwan R.O.C.). The animals were s.c. implanted with 5×10^5 KB cells or 1×10^6 KB-VIN10 cells mixed with equal volume of Matrigel (Becton Dickinson) in 0.1 mL at one flank per mouse via a 22-gauge needle. Tumor growth was examined twice a week after implantation, and the volume of tumor mass was measured with an electronic caliper and calculated as 1/2×length×width^2 in mm^3.
(§5) BPR1K653 was dissolved completely in a vehicle mixture of DMSO/cremophor/saline (1∶2∶7). Selected dose of BPR1K653 was decided base on the following conditions: 1/2 of the dosage that caused noticeable body weight loss (>10%) in the treated mice during toxicity study. […] The control group (5 mice) was treated with vehicle mixture only. Tumor size and animal body weight were measured every three days after drug treatment. Toxicity was evaluated based on the body weight reduction. At the end of the experiments (tumor size of the control >2000 mm^3), animals were euthanized with carbon dioxide.

[6] = test system: human cervical carcinoma KB xenografts; assay: KB xenograft in nude mice; format: in vivo; settings: for decrease in tumor volume: day 30, BPR1K653 15 mg/kg or VX680 30 mg/kg i.p.
Description: Under in vivo conditions, tumors were dissected from the euthanized mice and instantly stored under −80°C. Tumor tissue sections were prepared from the use of cryostats (Leica Microsystems, Buffalo Grove, IL), and subsequently fixed with ice-cold methanol. Tissue sections were stained by the TUNEL reagent using Fluorescent (green) In-Situ Apoptosis Detection Kit (catalog number #11684795910, Roche Diagnostic, Mannheim, Germany). Cells were counterstained with DAPI to detect nucleus, and examined by fluorescence microscopy. Amount of green fluorescence labeled (DNA fragmented) cells were counted and percentage of apoptotic cells were calculated as follows: Amount of green fluorescence labeled cells ÷ Total cells available×100. Experiments were repeated independently at least two times.
as §4, §5
Tumors were harvested and instantly stored at −80°C. Frozen cryostat sections were fixed with ice-cold methanol for 10 min. After washing with PBS, endogenous peroxidase was blocked using 3% hydrogen peroxide in TBS for 5 min. Immunostaining process was carried out according to the user's manual of the ABC Peroxidase Staining Kit (Pierce Biotechnology, Rockford, IL). Briefly, the tissues were incubated with a protein-blocking solution for 20 min, and subsequently stained with an anti-phosphorylated Histone H3 (Ser10) polyclonal antibody for 1 hour at room temperature. Then, the samples were incubated with the ABC reagent for 30 min, and subsequently incubated with the metal enhanced DAB substrate. The sections were counterstained with hematoxylin.

[7] = test system: MV4-11 cells; assay: Clonogenic assay, MV4-11; format: cell-based, Human; settings: Homo sapiens; MV4-11, leukemia, p53 mutant, MDR1 negative; read-out: IC50, anti-proliferative activity
Description: as §1, §2

[8] = test system: HONE-1 cells; assay: Clonogenic assay, HONE-1; format: cell-based, Human; settings: Homo sapiens, HONE1; HONE-1, oral, p53 mutant, MDR1 negative; read-out: IC50, anti-proliferative activity
Description: as §1, §2

[9] = test system: NTU0.017 cells; assay: Clonogenic assay, NTU0.017; format: cell-based, Human; settings: for IC50: Homo sapiens, NTU0.017, paclitaxol resistant, MDR1 ↑, read-out: IC50, anti-proliferative activity
Description: as §1, §2

[10] = test system: KB-VIN10 cells; assay: Endo-replication (polyploidy), microscopy and flow cytometry, KB-VIN10; format: cell-based, Human; settings: for formation of polyploidy (populations >4N): KB-VIN10, 48 h, same concentrations as KB
Description: as §3

Structure (SMILES)	Histone H3 phosphorylation and cyclin B1 expression [1]	IC50 [2]	formation of polyploidy (populations >4N) [3]	IC50 [4]	Fold difference as compare to the IC50 in the respective parental cells ([4]; KB-VIN10 vs KB)	loss of body weight after treatment ([5]; 15 mg/kg i.p., vs control group)	decrease in tumor volume [5]	phosphor-Histone H3 positive cells present in tumor tissues ([6]; 15 mg/kg i.p., 24 h after second administration, control 60%)	loss of body weight after treatment ([6]; 15 mg/kg i.p., 5 days/week for 2 weeks, vs control group)	apoptotic cells present in the tumor tissue (TUNEL) ([6]; 15 mg/kg i.p., 12 days post-treatment, control 7%)	decrease in tumor volume ([6]; 5 days/week for 2 weeks)	IC50 [7]	IC50 [8]	IC50 [9]	Fold difference as compare to the IC50 in the respective parental cells ([9]; NTU0.017 vs NTUB1)	formation of polyploidy (populations >4N) [10]	formation of polyploidy, co-treated with verapamil ([10]; KB-VIN10, + 10 µM verapamil)
CN(C)Cc1ccccc1NC(=O)Nc1ccc(CCNc2ncnc3oc(-c4ccccc4)c(Cl)c23)cc1 [BPR1K653]	inhibition of Histone H3 phosphorylation and down-regulation of cyclin B1 expression	12 ± 4 nM	induced the formation of polyploidy	14 ± 4 nM	1 fold	less than 10%	~50%	10%	less than 10%	55%	~73%	5 nM	11 nM	10 ± 4 nM	1 fold	induced the formation of polyploidy	–
Cc1cc(Nc2cc(N3CCN(C)CC3)nc(Sc3ccc(NC(=O)C4CC4)cc3)n2)[nH]n1 [VX680]	inhibited the phosphorylation of Histone H3 and the expression of cyclin B1	85 ± 31 nM	induced the formation of polyploidy in KB cells	1400 ± 140 nM	–	–	did not exhibit significant tumor growth inhibitory effect	–	–	–	~68%	15 ± 4 nM	20 ± 2 nM	6770 ± 1080 nM	–	not in KB-VIN10 cells	formation of the polyploidy population was shown
